The values below come from patent publication US8377942B2, “Isoxazolines derivatives and their use as pesticide” (Novartis AG, priority 2008, dated 2013).

The experiment has as its system Rhipicephalus sanguineus nymphs. The experiment can be described thus: Activity in vivo against Rhipicephalus sanguineus nymphs on Mongolian gerbils (spray application). The conditions noted are these: Dose 100 mg/kg, tick number reduction vs placebo (Abbot's formula), 7 days after infestation. How it is done:
3. Activity In Vivo Against Rhipicephalus sanguineus Nymphs on Mongolian Gerbils (Meriones unguiculatus) (Spray Application) On day 0, gerbils are treated with the test compound at a given dose by spray application. On day +1, the animals are infested with nymphs of R. sangineus. Ticks are left on the animals until full repletion. Seven days after infestation nymphs dropped off fully engorged are collected and counted. Efficacy in killing is expressed as a tick number reduction in comparison with a placebo treated group using the Abbot's formula.
For the molecule `FC(F)(F)C1(c2cc(Cl)cc(Cl)c2)CC(c2ccc(-n3cncn3)c3ccccc23)=NO1` (stereo not drawn) [Compound 1.1, 1-{4-[5-(3,5-dichloro-phenyl)-5-trifluoromethyl-4,5-dihydro-isoxazol-3-yl]-naphthalen-1-yl}-1H-[1,2,4]triazole], the “Efficacy (%)” value came to 85%.

On to `FC(F)(F)C1(c2cc(Cl)cc(Cl)c2)CC(c2ccc(-c3cn(Cc4ccccn4)nn3)c3ccccc23)=NO1` (stereo not drawn) [Compound 1.27, 2-(4-{4-[5-(3,5-dichloro-phenyl)-5-trifluoromethyl-4,5-dihydro-isoxazol-3-yl]-naphthalen-1-yl}-[1,2,3]triazol-1-ylmethyl)-pyridine], for which the “Efficacy (%)” value turned out to be 79%.

`O=C(NCc1cn(-c2ccc(C3=NOC(c4cc(Cl)cc(Cl)c4)(C(F)(F)F)C3)c3ccccc23)nn1)c1ccncc1` (stereo not drawn) [Compound 1.61, N-(1-{4-[5-(3,5-dichloro-phenyl)-5-trifluoromethyl-4,5-dihydro-isoxazol-3-yl]-naphthalen-1-yl}-1H-[1,2,3]triazol-4-ylmethyl)-isonicotinamide]: the “Efficacy (%)” value is 96%.
